The subject of one data set is Pcy/DBA mice. Put plainly: Efficacy in Pcy/DBA mouse model of PKD, alone and with tolvaptan.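 Also: dosing began at 6 weeks of age, with endpoints collected 7 days after the last dose and PBS-injected wild-type DBA/2J mice as the normal reference.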 Type of data set: in vivo. Particulars: 0.3% Tolvaptan in chow alone (vehicle SC).
Another data set has as its target AMPA-R. Put plainly: [3H]AMPA radioligand binding assay on rat brain synaptic membranes.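 As to all read-outs here: competition binding in which test compounds at rising concentrations displace [3H]AMPA from AMPA-R on rat brain synaptic membranes, with reduced bound radioligand as read-out.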 Particulars: for % Inhibition @ Concentration 100 uM: Table 8 (3′-terminal nucleobase/sugar variants); for % Inhibition @ Concentration 0.1 uM: Table 8, 0.1 uM; for % Inhibition @ Concentration 1 uM: Table 8, 1 uM; for % Inhibition @ Concentration 10 uM: Table 8, 10 uM.
The target in another data set is T1, AMPA-R (GluA1/GluA4) (Homo sapiens, UniProt P42261+P48058).
T1 construct: host or cells: ChanTest GluA1/GluA4 EZCells
Put plainly: Manual whole-cell patch clamp, ChanTest GluA1/GluA4 EZCells. Type of data set: cell-based. The procedure: To evaluate functional antagonism of anti-miR-17 oligonucleotides towards the AMPA-R, certain oligonucleotides were tested using the manual whole-cell patch clamp technique, which records membrane currents as a measure of AMPA-R activity.
Manual whole-cell patch clamp studies were performed by Metrion Biosciences (Cambridge, UK). Whole-cell voltage clamp experiments were performed at room temperature (18-21° C.) using an EPC10 patch clamp amplifier using Patchmaster software (HEKA Elektronik). Glass patch pipettes were fabricated from borosilicate glass capillaries (Harvard Apparatus) to resistances between 1.4 and 2.5 MΩ. Membrane currents were recorded using the whole-cell patch clamp technique. ChanTest® GluA1/GluA4 EZCells were clamped at a holding potential of −80 mV and membrane currents elicited by 10 μM(S)-AMPA delivered using a VC38 perfusion system (ALA Scientific Instruments). The […] current amplitude values were measured with each application of 10 μM(S)-AMPA. The fractional change of current amplitude produced by each concentration of compound was calculated relative to the control current (pre-compound) and expressed as percentage change (% inhibition) for each cell. RGLS4326 was tested in a separate study from all other compounds in Table 6.
For orientation: In patch-clamp work, channel activity is measured electrically.

For data set [1], the system named is miR-17. Put plainly: miR-17 luciferase sensor assay in HeLa cells. Type of data set: cell-based. The procedure:
The in vitro potency of certain compounds was evaluated using a miR-17 luciferase sensor assay which uses a luciferase reporter vector for miR-17, with two fully complementary miR-17 binding sites in tandem in the 3′-UTR of the luciferase gene. HeLa cells were co-transfected with the luciferase reporter vector and an exogenous miR-17-expression vector that acted to repress the luciferase signal.

Data set [2] relates to miR-17. In words: miR-17 PD-Sig in mouse kidney cell lines. Type of data set: cell-based. The conditions noted are these: D52B5, mouse, PKD. On the procedure:
The activity of certain compounds was evaluated using a mouse miR-17 Pharmacodynamic-Signature (miR-17 PD-Sig), which consists of the expression of 18 unique miR-17 target genes normalized by six reference housekeeping genes, to provide an unbiased and comprehensive assessment of miR-17 activity. The mouse miR-17 PD-Sig score was the calculated average of the 18 genes' individual log 2 fold changes (normalized by six housekeeping genes) compared to mock transfection (Lee et al., Nat. Commun., 2019, 10, 4148).
The PD-Sig for RGLS4326 in mIMCD3 cells (77.2, indicated by “*”) was not generated in this experiment; the value in Table 14 is that reported by Lee et al., Nat. Commun., 2019, 10, 4148. Blank cells in the table indicate that a compound was not tested in a particular cell line.

Data set [3] deals with miR-17. In words: microRNA polysome shift assay (miPSA) in kidney of wild type mice. Type of data set: in vivo, mouse. The conditions noted are these: single dose 30 mg/kg, seven days later. On the procedure: In vivo potency was evaluated using the microRNA polysome shift assay (miPSA). This assay was used to determine the extent to which compounds directly engage the miR-17 target in the kidney in normal and PKD mice. The miPSA relies on the principle that active miRNAs bind to their mRNA targets in translationally active high molecular weight (HMW) polysomes, whereas the inhibited miRNAs reside in the low MW (LMW) polysomes. Treatment with anti-miR results in a shift of the microRNA from HMW polysomes to LMW polysomes. Thus, the miPSA provides a direct measurement of microRNA target engagement by a complementary anti-miR (Androsavich et al., Nucleic Acids Research, 2015, 44: e13).
Wild type mice were administered a single dose of 0.3 mg/kg, 3 mg/kg, or 30 mg/kg. Kidney tissue was collected seven days later and subjected to the miPSA. The mean displacement score for each treatment is shown in Table 15 (PBS, n=17; RGLS4326 30 mg/kg, n=10; all other treatments, n=4-5). The tested oligonucleotides displaced miR-17 from translationally active polysome (as measured by miPSA) in normal mouse kidneys.

In data set [4] the test system is KspCre/Pkd1F/RC (Pkd1-F/RC) mice. In words: Efficacy in Pkd1-F/RC mouse model of ADPKD. Type of data set: in vivo. The conditions noted are these: 20 mg/kg SC on days 8, 10, 12, 15 of age.
Description: Mice were sacrificed at 18 days of age, and kidney weight, body weight, cyst index, serum creatinine level, and blood urea nitrogen (BUN) level were measured. BUN level is a marker of kidney function. A higher BUN level correlates with poorer kidney function, thus a reduction in BUN level is an indicator of reduced kidney injury and damage and improved function. Statistical significance was calculated by one-way ANOVA with Dunnett's multiple correction.

e = 2'-O-(2-methoxyethyl) (MOE); k = constrained ethyl (cEt); d = 2'-deoxy (DNA); m = 2'-O-methyl; f = 2'-fluoro

T1 sequence (P42261 19-906): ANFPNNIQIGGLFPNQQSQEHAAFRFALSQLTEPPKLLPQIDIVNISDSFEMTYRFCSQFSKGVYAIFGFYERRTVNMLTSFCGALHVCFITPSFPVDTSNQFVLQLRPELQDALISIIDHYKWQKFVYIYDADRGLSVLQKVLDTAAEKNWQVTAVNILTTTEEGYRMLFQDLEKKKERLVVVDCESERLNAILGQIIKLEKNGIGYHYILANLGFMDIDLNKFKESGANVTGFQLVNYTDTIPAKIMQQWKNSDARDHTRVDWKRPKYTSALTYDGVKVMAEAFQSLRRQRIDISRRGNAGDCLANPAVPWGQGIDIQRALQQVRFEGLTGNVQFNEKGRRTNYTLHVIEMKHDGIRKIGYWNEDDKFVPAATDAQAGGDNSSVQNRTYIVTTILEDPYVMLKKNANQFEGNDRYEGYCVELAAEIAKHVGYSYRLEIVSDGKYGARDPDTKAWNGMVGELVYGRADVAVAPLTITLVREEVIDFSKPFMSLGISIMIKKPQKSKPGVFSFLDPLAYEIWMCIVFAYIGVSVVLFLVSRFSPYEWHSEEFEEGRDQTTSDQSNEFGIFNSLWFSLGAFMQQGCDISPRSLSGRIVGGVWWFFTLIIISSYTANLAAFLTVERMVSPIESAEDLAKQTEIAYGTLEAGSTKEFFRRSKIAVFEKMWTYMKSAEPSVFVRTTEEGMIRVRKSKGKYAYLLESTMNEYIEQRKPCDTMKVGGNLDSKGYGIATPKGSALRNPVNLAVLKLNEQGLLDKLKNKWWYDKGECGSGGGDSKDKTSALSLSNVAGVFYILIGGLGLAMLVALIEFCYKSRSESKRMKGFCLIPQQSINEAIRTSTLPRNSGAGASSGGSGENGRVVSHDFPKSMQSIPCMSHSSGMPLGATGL
T1 sequence (P48058 21-902): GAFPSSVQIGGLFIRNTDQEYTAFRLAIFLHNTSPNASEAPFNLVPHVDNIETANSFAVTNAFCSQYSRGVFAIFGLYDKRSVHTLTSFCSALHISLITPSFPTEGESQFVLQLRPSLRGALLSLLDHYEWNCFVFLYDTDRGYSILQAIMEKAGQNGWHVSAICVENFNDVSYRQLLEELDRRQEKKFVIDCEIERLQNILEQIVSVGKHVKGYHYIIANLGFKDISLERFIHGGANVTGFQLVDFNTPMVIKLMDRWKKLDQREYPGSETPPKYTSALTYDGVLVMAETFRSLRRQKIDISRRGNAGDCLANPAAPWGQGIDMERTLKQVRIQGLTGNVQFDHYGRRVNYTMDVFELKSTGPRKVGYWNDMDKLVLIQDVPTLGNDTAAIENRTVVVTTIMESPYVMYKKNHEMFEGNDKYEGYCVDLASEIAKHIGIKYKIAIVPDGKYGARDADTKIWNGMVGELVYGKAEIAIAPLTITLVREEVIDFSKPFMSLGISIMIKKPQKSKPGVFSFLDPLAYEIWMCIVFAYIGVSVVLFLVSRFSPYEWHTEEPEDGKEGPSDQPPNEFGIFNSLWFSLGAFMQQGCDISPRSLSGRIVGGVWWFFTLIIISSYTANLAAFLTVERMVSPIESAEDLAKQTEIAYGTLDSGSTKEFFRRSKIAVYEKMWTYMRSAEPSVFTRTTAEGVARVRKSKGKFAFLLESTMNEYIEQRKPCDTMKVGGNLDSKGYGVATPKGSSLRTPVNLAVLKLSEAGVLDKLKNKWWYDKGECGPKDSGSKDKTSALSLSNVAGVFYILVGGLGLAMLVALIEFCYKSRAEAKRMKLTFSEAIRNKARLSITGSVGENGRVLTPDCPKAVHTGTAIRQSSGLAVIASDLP
Description for Pcy/DBA mice: The efficacy of RG-NG-1015 was also evaluated in the Pcy/DBA mouse model of PKD alone and in combination with tolvaptan.
As outlined in FIGS. 6A and 6B, five groups of male Pcy/DBA mice (n=13 per treatment group) were treated subcutaneously with PBS or RG-NG-1015 at 25, 5, 1, or 0.2 mg/kg once every two weeks (Q2W). Two groups of male Pcy/DBA mice (n=13 per group) were also treated with RG-NG-1015 at 50 mg/kg once every four weeks (Q4W) or at 12.5 mg/kg once weekly (QW). Another four groups of male Pcy/DBA mice (n=13 per group) were treated subcutaneously with PBS or RG-NG-1015 at 25, 5, or 1 mg/kg Q2W in combination with tolvaptan at 0.3% (w/w chow) ad libitum. A group of male WT-BDA/2J mice received subcutaneous injections of PBS Q2W was included in the study as a normal range reference. Mice were randomized into treatment groups at 5 weeks of age, and treatment started at 6 weeks of age for 17 weeks and were sacrificed 7 days after the final treatment. Kidney weight, body weight, kidney cyst index, urine Ngal-to-Creatinine ratio (Ngal/Cr) were measured.

Consider `Cc1ccccc1C(=O)Nc1ccc(C(=O)N2CCCC(O)c3cc(Cl)ccc32)c(C)c1` (stereo not drawn) [Tolvaptan, tolvaptan, reference compound], for which, in the data set on Pcy/DBA mice, the “Mean Cystic Area” value was 44.68%, the “Mean Cystic Area % Inhibition” value was 29.2%, the Mean KW/BW turned out to be 59.3 mg/g and the “Mean KW/BW % Inhibition” value is recorded as 44.9%. Besides, in the data set on Pcy/DBA mice, the “Mean Urine Ngal/Cr” value came out at 8.73 mg/mg and the “Mean Urine Ngal/Cr % Inhibition” value is on record as 62.1%.
Regarding “ASCSAMAFUFGFCMASCS [RG5124, reference compound]”, the IC50 (as a rule, the point on the concentration scale where inhibition reaches its midpoint) is more than 100 µM on AMPA-R (Experiment #1), more than 100 µM at AMPA-R (Experiment #2), more than 100 µM on AMPA-R (Experiment #3) and not below 100 µM at AMPA-R (Table 8). Besides, the “% Inhibition @ 0.1 uM” value in the data set with AMPA-R (Experiment #1, 0.1 uM) is listed as 0.4%; in the data set on AMPA-R (Experiment #2, 0.1 uM), −1.2%; with AMPA-R (Experiment #3, 0.1 uM), 5.1%. Further, the “% Inhibition @ 1 uM” value in the data set with AMPA-R (Experiment #1, 1 uM) is reported as 12.9%; in the data set with AMPA-R (Experiment #2, 1 uM) it was 1.6%; in the data set on AMPA-R (Experiment #3, 1 uM) it was 9.3%. The “% Inhibition @ 10 uM” value is −3.7% in the data set on AMPA-R (Experiment #1, 10 uM); −4.2% with AMPA-R (Experiment #2, 10 uM); 16.1% in the data set on AMPA-R (Experiment #3, 10 uM). The “% Inhibition @ 100 uM” value is given as −5.1% with AMPA-R (Experiment #1, 100 uM); 7.2% in the data set on AMPA-R (Experiment #2, 100 uM); 23% with AMPA-R (Experiment #3, 100 uM). Also, in the data set on AMPA-R, the “% Inhibition @ Concentration 100 uM” value is reported as 10.1%. Further, the “% Inhibition @ Concentration 0.1 uM” value in the data set on AMPA-R is given as −8.6%. The “% Inhibition @ Concentration 1 uM” value in the data set on AMPA-R is recorded as −0.6%. In addition, the “% Inhibition @ Concentration 10 uM” value in the data set on AMPA-R is given as 4.4%. Besides, the results for the “% Inhibition on membrane currents evoked with 10 uM (s)-AMPA (Mean ± SD)” value at AMPA-R (GluA1/GluA4) (0.3 uM compound) and on AMPA-R (GluA1/GluA4) (3 uM compound) were 14.1 ± 7.2% and 42.1 ± 9.4%, respectively. In addition, the “Log2FC (37.5 nM)” value in the data set on miR-17 [1] is reported as 0.40. The midpoint of the response in the data set with miR-17 [2], the EC50, lay at 507 nM. In addition, the “miPSA Displacement Score, Mean” value in the data set on miR-17 [3] is 0.5935. Also, in data set [4], the “BW/KW Ratio, Mean Difference vs. PBS” value is on record as 26.14. For the same compound, the “Serum BUN, Mean Difference vs. PBS” value in data set [4] is given as “+8.138”. Besides, in data set [4], the “Serum Creatine, Mean Difference vs. PBS” value was “+0.07838”. The “Mean BW/KW Ratio” value in data set [4] (sacrificed at 18 days) is 91.75. Moreover, the “Mean Serum BUN” value in data set [4] (sacrificed at 18 days) is given as 50.61. In data set [4] (sacrificed at 18 days), the “Mean Serum Creatine” value is listed as 0.2403.
Take “GSCEAECETEGSTEADASGSCMAFCFUFUMUSGS (GCACTGTAAGCACUUUG; sugars from the 5' end keeeekedkkmfffmkk, backbone and methylation of C not given here) [RG-NG-1032]”: in the data set with AMPA-R (Table 8), the 50% inhibitory concentration (IC50) was 1.17 µM. In addition, in the data set on AMPA-R, the “% Inhibition @ Concentration 100 uM” value came to 92%, the “% Inhibition @ Concentration 0.1 uM” value was determined as 24.3%, the “% Inhibition @ Concentration 1 uM” value was determined as 43.8% and the “% Inhibition @ Concentration 10 uM” value was 78.3%. Also, the “Log2FC (37.5 nM)” value in the data set on miR-17 [1] was 3.85. Moreover, the 50% effective concentration (EC50) – broadly, the concentration at which the effect is half-maximal – with miR-17 [1] (HeLa cells, 18- to 24-hour transfection) was less than 1 nM.
With “TEAASGSCMAFCFUFUMUSCS (TAAGCACUUUC; 2'-MOE at 1, cEt at 3, 4, 10, 11, 2'-O-methyl at 5, 9, 2'-fluoro at 6, 7, 8, other sugars and backbone not given here) [RG-NG-1021]”, the IC50 in the data set with AMPA-R (Experiment #3) is more than 100 µM. Further, in the data set with AMPA-R (Experiment #3, 0.1 uM), the “% Inhibition @ 0.1 uM” value is given as −2%. Also, the “% Inhibition @ 1 uM” value in the data set on AMPA-R (Experiment #3, 1 uM) is given as −10.9%. The “% Inhibition @ 10 uM” value in the data set with AMPA-R (Experiment #3, 10 uM) is reported as −11.5%. Also, the “% Inhibition @ 100 uM” value with AMPA-R (Experiment #3, 100 uM) is listed as −1.5%.
In the data set on AMPA-R (Experiment #3), “TEAFASGSCMAFCFUFUMUSCS (TAAGCACUUUC; 2'-MOE, S-cEt, 2'-F, 2'-OMe modifications; modified_base 1 OTHER; thymine; misc_feature 1..11 Synthetic: RG-NG-1022; modified_base 1..2 OTHER; 2'-O-methoxyethyl nucleoside; modified_base 3..4 OTHER; S-constrained ethyl nucleoside; modified_base 5 OTHER; 2'-O-methyl nucleoside; modified_base 6..8 OTHER; 2'-fluoro nucleoside; modified_base 9 OTHER; modified_base 10..11 OTHER)” gave an IC50 of more than 100 µM. In addition, in the data set on AMPA-R (Experiment #3, 0.1 uM), the “% Inhibition @ 0.1 uM” value is listed as −23.5%. Further, the “% Inhibition @ 1 uM” value in the data set with AMPA-R (Experiment #3, 1 uM) is recorded as −5.4%. Further, in the data set with AMPA-R (Experiment #3, 10 uM), the “% Inhibition @ 10 uM” value is listed as −7%. Also, in the data set on AMPA-R (Experiment #3, 100 uM), the “% Inhibition @ 100 uM” value is reported as −10.9%.
For “TEGSTEAASGSCMAFCFUFUMUSCS (TGTAAGCACUUUC; anti-miR; 2'-MOE at 1, 3, cEt at 2, 5, 6, 12, 13, 2'-O-methyl at 7, 11, 2'-fluoro at 8, 9, 10, other sugars and backbone not given here) [RG-NG-1020]” the same measures were more than 100 µM, 17%, 6.6%, −23.3% and −7.9%.
Regarding “USASAMGCSASCSUMUMUSGS (antisense UAAGCACUUUG; cEt at 1, 2, 5, 6, 7, 10, 11, 2'-O-methyl at 3, 8, 9, other sugars and backbone not given here) [RG-NG-1005]”, in the data set on AMPA-R (Experiment #1), the IC50 was more than 100 µM. The “% Inhibition @ 0.1 uM” value with AMPA-R (Experiment #1, 0.1 uM) was determined as 10.8%. For the same compound, the “% Inhibition @ 1 uM” value with AMPA-R (Experiment #1, 1 uM) is given as −1.3%. In addition, the “% Inhibition @ 10 uM” value in the data set on AMPA-R (Experiment #1, 10 uM) is given as 0.8%. In addition, in the data set on AMPA-R (Experiment #1, 100 uM), the “% Inhibition @ 100 uM” value worked out at 28.3%.
For USASASGSCSASCSUSUSUSGS [RG-NG-1004], in that order: 17.3 µM, −4.7%, 4.7%, 44.2% and 76.1%.
